Assay results: patent US20260285866A1, “MODULATORS OF TRPML, THEIR COMPOSITIONS AND METHODS OF USE” (Caraway Therapeutics, Inc., priority 2024, published 2026)

Assays:
Human TRPML3 = molecular target: T1, Human TRPML3 (Homo sapiens, UniProt Q8TDD5); experiment: Fluorescent TRPML3 assay (as for TRPML1); type: cell-based; settings: fluorescent calcium assay as for TRPML1, TRPML3 subtype
T1 construct: expressed in transfected cells
T1 sequence (Q8TDD5 1-553): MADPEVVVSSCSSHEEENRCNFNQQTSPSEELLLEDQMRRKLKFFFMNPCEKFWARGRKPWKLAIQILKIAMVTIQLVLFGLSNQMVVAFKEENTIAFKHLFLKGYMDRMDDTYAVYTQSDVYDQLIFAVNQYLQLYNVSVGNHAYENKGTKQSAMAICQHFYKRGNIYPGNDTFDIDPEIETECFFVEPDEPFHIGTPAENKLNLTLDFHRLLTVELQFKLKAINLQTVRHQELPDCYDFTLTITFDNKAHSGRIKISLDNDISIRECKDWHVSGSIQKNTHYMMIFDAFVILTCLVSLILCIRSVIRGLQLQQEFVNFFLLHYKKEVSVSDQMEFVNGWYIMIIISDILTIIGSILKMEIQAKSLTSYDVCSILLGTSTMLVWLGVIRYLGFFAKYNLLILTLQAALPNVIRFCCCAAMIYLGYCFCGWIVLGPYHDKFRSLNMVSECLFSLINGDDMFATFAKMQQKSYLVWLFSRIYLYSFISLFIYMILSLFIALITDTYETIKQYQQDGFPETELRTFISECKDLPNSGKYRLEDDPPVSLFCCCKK
Description: (§1) HEK-293 Trex cells were stably transfected with a construct consisting of the human coding sequence for TRPML1 cloned into the tet-inducible plasmid pCDNA5 T/O. Mutations were introduced into the TRPML1 sequence to facilitate expression on the cell surface (Silvia Vergarajauregui, Rosa Puertollano Traffic. 2006 March; 7(3): 337-353). Briefly, the cells are cultured in 150 mm round tissue culture dishes containing 20 mL of media. The day before the assay the cells are rinsed with DPBS-Ca-Mg and then treated briefly with Trypsin-EDTA. The Trypsin-EDTA is diluted with growth media, and cells are counted. 38×10^6 cells are re-plated into 150 mm round tissue culture dishes in media containing 0.5 μg/mL doxycycline to induce expression of hTRPML1.
(§2) The day of the experiment cells are lifted from the plates as above and collected by centrifugation. The cells are then suspended in dye loading buffer consisting of Ringer's solution supplemented with 0.1% Pluronic Acid and 1 micromolar Fluo4-AM dye. Cells are loaded for ~60 minutes in the dark with occasional mixing. The cells are collected by centrifugation, the loading media aspirated, and the cells resuspended in 25 mL Ringer's solution and incubated ~60 minutes in the dark. The cells are again collected by centrifugation, rinsed in Ringer's Solution and resuspended to 0.2×10^6 cells/mL in modified Ringer's solution containing 10 mM calcium.
(§3) Compounds are dissolved to a concentration of 10 millimolar with DMSO. Compound plates are created by dispensing compounds into 384 well black wall clear bottom plates (Greiner 781091). Positive and negative controls are included on each plate. Typically, different amounts of each compound are tested ranging from 100 nanoMoles (20 micromolar final concentration) decreasing in half-log steps to 31 picoMoles (6 nanomolar final concentration). Each concentration is typically tested in triplicate.
(§4) 50 microliters of dye-loaded cells are dispensed into each well of the compound assay plate created above. The fluorescence in each well is then determined with an excitation wavelength of 480 nm and an emission wavelength of 540 nm using either a Molecular Devices SpectraMax multimode plate reader or a Hamamatsu FDSS/uCell plate imager.
(§5) The resulting fluorescence for each well is exported as an ascii file and loaded into our LIMS for analysis. The percent activity of each compound at each concentration is determined by comparison to the positive and negative control wells included in each plate.
Assays for TRPML2 and TRPML3 were performed as above for TRPML1, by substituting the appropriate TRPML2 or TRPML3 subtype for the TRPML1.
(§6) EC50 values were calculated using a non-linear regression of Prism. In the table, “A” indicates an EC50 of less than 100 nM, “B” indicates an EC50 range from 100 nM to 500 nM: “C” indicates an EC50 range from 500 nM to 2 μM; and “D” indicates an EC50 greater than 2 μM.

Human TRPML1 = Human TRPML1 (Homo sapiens, UniProt Q9GZU1, L15A/L16A/L577A/L578A); experiment: Fluorescent TRPML1 assay (Fluo4-AM, HEK-293 Trex cells expressing hTRPML1); type: cell-based; settings: fluorescent calcium assay, doxycycline-induced hTRPML1
Chain of Human TRPML1 (Q9GZU1 whole entry L15A/L16A/L577A/L578A): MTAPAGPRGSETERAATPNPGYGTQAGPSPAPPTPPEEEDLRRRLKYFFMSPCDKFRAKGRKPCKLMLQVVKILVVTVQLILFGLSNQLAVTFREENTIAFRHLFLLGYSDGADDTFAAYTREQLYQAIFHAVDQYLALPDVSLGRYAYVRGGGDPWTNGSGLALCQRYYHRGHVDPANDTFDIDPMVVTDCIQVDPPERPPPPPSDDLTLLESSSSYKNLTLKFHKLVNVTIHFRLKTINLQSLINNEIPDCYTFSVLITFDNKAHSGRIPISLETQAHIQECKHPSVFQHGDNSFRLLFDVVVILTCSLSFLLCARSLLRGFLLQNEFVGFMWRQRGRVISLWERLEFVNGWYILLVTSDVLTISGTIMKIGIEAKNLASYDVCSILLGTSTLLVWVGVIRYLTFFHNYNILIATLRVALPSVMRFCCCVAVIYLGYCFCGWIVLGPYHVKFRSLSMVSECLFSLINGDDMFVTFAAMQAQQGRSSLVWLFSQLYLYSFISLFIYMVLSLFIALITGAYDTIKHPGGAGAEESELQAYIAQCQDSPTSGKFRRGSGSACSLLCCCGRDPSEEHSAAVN
Description: Example 27. Fluorescent TRPML Assays
as §1, §2, §3, §4, §5, §6

| EC50 (Human TRPML3) | EC50 (Human TRPML1) | SMILES |
| --- | --- | --- |
| 0.5 to 2 µM | 0.1 to 0.5 µM | C[C@@H]1CN(c2ncnc3c2c(-c2ccccc2)cn3-c2cc(C#N)ccn2)[C@@H](C2CC2)CN1C(=O)C(C)(C)O [Compound 119, 2-(4-((2S,5R)-2-cyclopropyl-4-(2-hydroxy-2-methylpropanoyl)-5-methylpiperazin-1-yl)-5-phenyl-7H-pyrrolo[2,3-d]pyrimidin-7-yl)isonicotinonitrile] |
| > 2 µM | > 2 µM | C[C@@H]1CN(c2ncnc3c2c(-c2ccccc2F)cn3-c2cc(C#N)ccn2)[C@@H](C)CN1C(=O)C1(O)CCN(C)CC1 [Compound 123, 2-(5-(2-fluorophenyl)-4-((2S,5R)-4-(4-hydroxy-1-methylpiperidine-4-carbonyl)-2,5-dimethylpiperazin-1-yl)-7H-pyrrolo[2,3-d]pyrimidin-7-yl)isonicotinonitrile] |
| > 2 µM | 0.5 to 2 µM | C[C@@H]1CN(c2ncnc3c2c(-c2cocn2)cn3-c2cc(C#N)ccn2)[C@@H](C)CN1C(=O)C(C)(C)O [Compound 126, 2-(4-((2S,5R)-4-(2-hydroxy-2-methylpropanoyl)-2,5-dimethylpiperazin-1-yl)-5-(oxazol-4-yl)-7H-pyrrolo[2,3-d]pyrimidin-7-yl)isonicotinonitrile] |
| > 2 µM | 0.1 to 0.5 µM | C[C@@H]1CN(c2ncnc3c2c(-c2cnco2)cn3-c2cc(C#N)ccn2)[C@@H](C)CN1C(=O)C(C)(C)O [Compound 127, 2-(4-((2S,5R)-4-(2-hydroxy-2-methylpropanoyl)-2,5-dimethylpiperazin-1-yl)-5-(oxazol-5-yl)-7H-pyrrolo[2,3-d]pyrimidin-7-yl)isonicotinonitrile] |
| > 2 µM | 0.5 to 2 µM | C[C@@H]1CN(c2ncnc3c2c(-c2ccccc2)cn3-c2cc(C#N)ccn2)[C@@H](C)CN1C(=O)C1(O)CN(C)C1 [Compound 130, 2-(4-((2S,5R)-4-(3-hydroxy-1-methylazetidine-3-carbonyl)-2,5-dimethylpiperazin-1-yl)-5-phenyl-7H-pyrrolo[2,3-d]pyrimidin-7-yl)isonicotinonitrile] |
| 0.5 to 2 µM | 0.1 to 0.5 µM | CC(C)[C@H]1CN(C(=O)C(C)(C)O)[C@H](C)CN1c1ncnc2c1c(-c1ccccc1)cn2-c1cc(C#N)ccn1 [Compound 131, 2-(4-((2S,5R)-4-(2-hydroxy-2-methylpropanoyl)-2-isopropyl-5-methylpiperazin-1-yl)-5-phenyl-7H-pyrrolo[2,3-d]pyrimidin-7-yl)isonicotinonitrile] |
| > 2 µM | > 2 µM | C[C@@H]1CN(c2ncnc3c2c(-n2ccnc2)cn3-c2cc(C#N)ccn2)[C@@H](C)CN1C(=O)C(C)(C)O [Compound 132, 2-(4-((2S,5R)-4-(2-hydroxy-2-methylpropanoyl)-2,5-dimethylpiperazin-1-yl)-5-(1H-imidazol-1-yl)-7H-pyrrolo[2,3-d]pyrimidin-7-yl)isonicotinonitrile] |
| > 2 µM | 0.5 to 2 µM | C[C@@H]1CN(c2ncnc3c2c(-c2ncco2)cn3-c2cc(C#N)ccn2)[C@@H](C)CN1C(=O)C(C)(C)O [Compound 134, 2-(4-((2S,5R)-4-(2-hydroxy-2-methylpropanoyl)-2,5-dimethylpiperazin-1-yl)-5-(oxazol-2-yl)-7H-pyrrolo[2,3-d]pyrimidin-7-yl)isonicotinonitrile] |
| > 2 µM | 0.5 to 2 µM | C[C@@H]1CN(c2ncnc3c2c(-c2ccncc2)cn3-c2cc(F)ccn2)[C@@H](C)CN1C(=O)C(C)(C)O [Compound 136, 1-((2R,5S)-4-(7-(4-fluoropyridin-2-yl)-5-(pyridin-4-yl)-7H-pyrrolo[2,3-d]pyrimidin-4-yl)-2,5-dimethylpiperazin-1-yl)-2-hydroxy-2-methylpropan-1-one] |
| > 2 µM | 0.5 to 2 µM | C[C@@H]1CN(c2ncnc3c2c(-c2ccncc2)cn3-c2cccc(Cl)c2)[C@@H](C)CN1C(=O)C(C)(C)O [Compound 137, 1-((2R,5S)-4-(7-(3-chlorophenyl)-5-(pyridin-4-yl)-7H-pyrrolo[2,3-d]pyrimidin-4-yl)-2,5-dimethylpiperazin-1-yl)-2-hydroxy-2-methylpropan-1-one] |
| > 2 µM | > 2 µM | C[C@@H]1CN(c2ncnc3c2c(-c2ccncc2)cn3-c2cccc(F)c2)[C@@H](C)CN1C(=O)C(C)(C)O [Compound 139, 1-((2R,5S)-4-(7-(3-fluorophenyl)-5-(pyridin-4-yl)-7H-pyrrolo[2,3-d]pyrimidin-4-yl)-2,5-dimethylpiperazin-1-yl)-2-hydroxy-2-methylpropan-1-one] |
| > 2 µM | 0.5 to 2 µM | C[C@@H]1CN(c2nccc3c2c(-c2ccncc2)cn3-c2cc(C#N)ccn2)[C@@H](C)CN1C(=O)C(C)(C)O [Compound 140, 2-(4-((2S,5R)-4-(2-hydroxy-2-methylpropanoyl)-2,5-dimethylpiperazin-1-yl)-3-(pyridin-4-yl)-1H-pyrrolo[3,2-c]pyridin-1-yl)isonicotinonitrile] |
| > 2 µM | > 2 µM | C[C@@H]1CN(c2nccc3c2c(-c2ccncc2)cn3-c2cc(F)ccn2)[C@@H](C)CN1C(=O)C(C)(C)O [Compound 141, 1-((2R,5S)-4-(1-(4-fluoropyridin-2-yl)-3-(pyridin-4-yl)-1H-pyrrolo[3,2-c]pyridin-4-yl)-2,5-dimethylpiperazin-1-yl)-2-hydroxy-2-methylpropan-1-one] |
| > 2 µM | 0.5 to 2 µM | C[C@@H]1CN(c2nccc3c2c(-c2ccncc2)cn3-c2cccc(Cl)c2)[C@@H](C)CN1C(=O)C(C)(C)O [Compound 142, 1-((2R,5S)-4-(1-(3-chlorophenyl)-3-(pyridin-4-yl)-1H-pyrrolo[3,2-c]pyridin-4-yl)-2,5-dimethylpiperazin-1-yl)-2-hydroxy-2-methylpropan-1-one] |
| > 2 µM | > 2 µM | C[C@@H]1CN(c2nccc3c2c(-c2ccncc2)cn3-c2cccc(F)c2)[C@@H](C)CN1C(=O)C(C)(C)O [Compound 144, 1-((2R,5S)-4-(1-(3-fluorophenyl)-3-(pyridin-4-yl)-1H-pyrrolo[3,2-c]pyridin-4-yl)-2,5-dimethylpiperazin-1-yl)-2-hydroxy-2-methylpropan-1-one] |
| > 2 µM | > 2 µM | C[C@@H]1CN(c2nccc3c2c(-c2ccncc2)cn3-c2cccc(C#N)c2)[C@@H](C)CN1C(=O)C(C)(C)O [Compound 145, 3-(4-((2S,5R)-4-(2-hydroxy-2-methylpropanoyl)-2,5-dimethylpiperazin-1-yl)-3-(pyridin-4-yl)-1H-pyrrolo[3,2-c]pyridin-1-yl)benzonitrile] |
| > 2 µM | 0.5 to 2 µM | C[C@@H]1CN(c2ncnc3c2c(-c2ccncc2)cn3-c2cc(C#N)ccn2)[C@@H](C)CN1C(=O)C1(O)CC1 [Compound 149, 2-(4-((2S,5R)-4-(1-hydroxycyclopropane-1-carbonyl)-2,5-dimethylpiperazin-1-yl)-5-(pyridin-4-yl)-7H-pyrrolo[2,3-d]pyrimidin-7-yl)isonicotinonitrile] |
| > 2 µM | 0.5 to 2 µM | C[C@@H]1CN(c2ncnc3c2c(-c2ccno2)cn3-c2cc(C#N)ccn2)[C@@H](C)CN1C(=O)C(C)(C)O [Compound 152] |
